Test results reported in patent publication US8980888B2, “Pyrazole derivative” (Mochida Pharmaceutical Co., Ltd., priority 2013, dated 2015).
pIC50: −log10 of the molar value.

Target: T1, Human PDE10 (Homo sapiens, UniProt Q9Y233)
T1 construct: purchased BPA Bioscience (so in the source)
Assay: Human PDE10 inhibitory effect (IMAP TR-FRET enzyme inhibition assay)
Format: biochemical
Conditions: PDE10 inhibitory activity, cAMP substrate
Experimental: (Evaluation of Enzyme Inhibitory Activity: Human PDE10 Inhibitory Effect)
IMAP TR-FRET Phosphodiersterase Evaluation Assay Kit (Molecular Device) was used for the measurement. Ten μL of a diluted test compound having each concentration and 5 μL of the enzyme PDE10 (BPA Bioscience) that had been diluted to 2 ng/mL with 1×IMAP Reaction Buffer (prepared with 5× included with the kit, 10 mM Tris-HCl, pH=7.2, 10 mM MgCl2, 0.05% NaN3, and 0.1% BSA) containing 0.1% BSA were added to a 384-well plate (Corning). The obtained mixture was then pre-incubated at room temperature for 5 minutes. Thereafter, 5 μL of cAMP substrate solution which was included with the kit and diluted to 400 nM with 1×IMAP Reaction Buffer containing 0.1% BSA, was added to the reaction solution, and the obtained mixture was reacted at room temperature for 60 minutes. Thereafter, 60 μL of an IMAP TR-FRET Binding solution included with the kit was further added to the reaction solution, and the obtained mixture was then left for 3 hours or more. Subsequently, using ARVO SX (PerkinElmer), the fluorescent intensity of Terbium (Emission=490 nm) and TR-FRET (Emission=520 nm) in the reaction solution were measured at an excitation wavelength of 340 nm, so as to calculate the amount of the generated 5′-AMP. The count of a well to which a solvent had been added instead of the test compound was set at 0%, and the count of a well to which the enzyme PDE10 had not been added was set at 100%. Thus, the inhibitory activity of each test compound was calculated.
The PDE10 inhibitory activity of the test compound was indicated with an IC50 value. […] The test compounds are shown in Table 3 (Table 3-1 and Table 3-2).

T1 sequence (Q9Y233 whole entry): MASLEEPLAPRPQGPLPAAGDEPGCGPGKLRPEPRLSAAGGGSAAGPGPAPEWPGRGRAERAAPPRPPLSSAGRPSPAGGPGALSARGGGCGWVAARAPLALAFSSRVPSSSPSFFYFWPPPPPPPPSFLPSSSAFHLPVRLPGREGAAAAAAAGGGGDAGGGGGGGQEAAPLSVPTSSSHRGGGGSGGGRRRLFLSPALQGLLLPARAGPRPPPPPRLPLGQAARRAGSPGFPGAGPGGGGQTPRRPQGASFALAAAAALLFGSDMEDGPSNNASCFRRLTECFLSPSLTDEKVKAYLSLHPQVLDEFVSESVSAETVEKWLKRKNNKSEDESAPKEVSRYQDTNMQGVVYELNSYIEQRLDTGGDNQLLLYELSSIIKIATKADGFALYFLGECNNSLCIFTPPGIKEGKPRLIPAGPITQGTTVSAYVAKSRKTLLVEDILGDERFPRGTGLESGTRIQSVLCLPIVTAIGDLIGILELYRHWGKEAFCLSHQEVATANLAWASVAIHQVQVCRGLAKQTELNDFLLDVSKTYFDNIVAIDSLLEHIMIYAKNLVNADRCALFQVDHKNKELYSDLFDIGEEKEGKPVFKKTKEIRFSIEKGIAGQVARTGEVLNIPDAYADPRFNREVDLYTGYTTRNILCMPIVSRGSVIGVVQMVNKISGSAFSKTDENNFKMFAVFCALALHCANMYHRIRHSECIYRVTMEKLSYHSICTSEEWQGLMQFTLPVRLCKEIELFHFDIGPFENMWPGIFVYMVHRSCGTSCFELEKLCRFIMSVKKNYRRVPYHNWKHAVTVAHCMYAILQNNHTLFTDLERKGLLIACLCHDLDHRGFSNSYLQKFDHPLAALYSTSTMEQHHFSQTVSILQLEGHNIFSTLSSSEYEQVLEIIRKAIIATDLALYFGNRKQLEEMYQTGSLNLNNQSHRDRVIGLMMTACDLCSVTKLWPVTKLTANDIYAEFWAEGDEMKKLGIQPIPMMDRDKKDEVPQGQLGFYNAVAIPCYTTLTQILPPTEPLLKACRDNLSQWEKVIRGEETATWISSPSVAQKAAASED

Compound	pIC50
C[C@H]1CCCN1c1nc2cc(NC(=O)c3c(-c4nc(C(F)F)cs4)cnn3C)ccn2n1 [Example 4.1, (S)-4-(4-(difluoromethyl)thiazol-2-yl)-1-methyl-N-(2-(2-methylpyrrolidin-1-yl)-[1,2,4]triazolo[1,5-a]pyridin-7-yl)-1H-pyrazole-5-carboxamide]	> 8.30
Cn1ncc(-c2nc(C#N)cs2)c1C(=O)NC1CCn2nc(-c3ccc(F)cc3)nc2C1 (stereo not shown) [Example 5.41, 4-(4-cyanothiazol-2-yl)-N-(2-(4-fluorophenyl)-5,6,7,8-tetrahydro-[1,2,4]triazolo[1,5-a]pyridin-7-yl)-1-methyl-1H-pyrazole-5-carboxamide]	7.00 to 8.30
C[C@H]1CCCN1c1nc2cc(NC(=O)c3c(-c4nc(C(F)F)c(Cl)s4)cnn3C)ccn2n1 [Example 4.2, (S)-4-(5-chloro-4-(difluoromethyl)thiazol-2-yl)-1-methyl-N-(2-(2-methylpyrrolidin-1-yl)-[1,2,4]triazolo[1,5-a]pyridin-7-yl)-1H-pyrazole-5-carboxamide]	> 8.30
Cn1ncc(-c2cccc(C(F)(F)F)n2)c1C(=O)NC1CCn2nc(-c3ccccc3)nc2C1 (stereo not shown) [Example 5.21, 1-methyl-N-(2-phenyl-5,6,7,8-tetrahydro-[1,2,4]triazolo[1,5-a]pyridin-7-yl)-4-(6-(trifluoromethyl)pyridin-2-yl)-1H-pyrazole-5-carboxamide]	7.00 to 8.30
Cc1ccc(-c2cnn(C)c2C(=O)NC2CCn3cc(-c4ccccc4)nc3C2)nc1 (stereo not shown) [Example 2.21, 1-methyl-4-(5-methylpyridin-2-yl)-N-(2-phenyl-5,6,7,8-tetrahydroimidazo[1,2-a]pyridin-7-yl)-1H-pyrazole-5-carboxamide]	7.00 to 8.30
Cc1cncc(-c2cnn(C)c2C(=O)NC2CCn3cc(-c4cccc(F)c4)nc3C2)n1 (stereo not shown) [Example 2.24, N-(2-(3-fluorophenyl)-5,6,7,8-tetrahydroimidazo[1,2-a]pyridin-7-yl)-1-methyl-4-(6-methylpyrazin-2-yl)-1H-pyrazole-5-carboxamide]	7.00 to 8.30
Cn1ncc(-c2nc(C(F)F)cs2)c1C(=O)NC1CCn2cc(-c3cccc(F)c3)nc2C1 (stereo not shown) [Example 2.20, 4-(4-(difluoromethyl)thiazol-2-yl)-N-(2-(3-fluorophenyl)-5,6,7,8-tetrahydroimidazo[1,2-a]pyridin-7-yl)-1-methyl-1H-pyrazole-5-carboxamide]	> 8.30
CCc1nnc(-c2cnn(C)c2C(=O)NC2CCn3nc(-c4ccccc4)nc3C2)s1 (stereo not shown) [Example 5.12, 4-(5-ethyl-1,3,4-thiadiazol-2-yl)-1-methyl-N-(2-phenyl-5,6,7,8-tetrahydro-[1,2,4]triazolo[1,5-a]pyridin-7-yl)-1H-pyrazole-5-carboxamide]	7.00 to 8.30
CCOCCc1sc(-c2cnn(C)c2C(=O)NC2CCn3nc(-c4ccccc4)nc3C2)nc1C (stereo not shown) [Example 5.11, 4-(5-(2-ethoxyethyl)-4-methylthiazol-2-yl)-1-methyl-N-(2-phenyl-5,6,7,8-tetrahydro-[1,2,4]triazolo[1,5-a]pyridin-7-yl)-1H-pyrazole-5-carboxamide]	7.00 to 8.30
Cn1ncc(-c2nc(C(F)F)cs2)c1C(=O)NC1CCn2nc(-c3ccc(F)cc3)nc2C1 (stereo not shown) [Example 5.2, 4-(4-(difluoromethyl)thiazol-2-yl)-N-(2-(4-fluorophenyl)-5,6,7,8-tetrahydro-[1,2,4]triazolo[1,5-a]pyridin-7-yl)-1-methyl-1H-pyrazole-5-carboxamide]	7.00 to 8.30
Cn1ncc(-c2cc(F)ccn2)c1C(=O)Nc1cc2nc(-c3ccccc3)nn2cc1F [Example 3.4, N-(6-fluoro-2-phenyl-[1,2,4]triazolo[1,5-a]pyridin-7-yl)-4-(4-fluoropyridin-2-yl)-1-methyl-1H-pyrazole-5-carboxamide]	> 8.30
Cn1ncc(-c2nc(C(F)(F)F)cs2)c1C(=O)NC1CCn2nc(N3CCCC3)nc2C1 (stereo not shown) [Example 5.46, 1-methyl-N-(2-(pyrrolidin-1-yl)-5,6,7,8-tetrahydro-[1,2,4]triazolo[1,5-a]pyridin-7-yl)-4-(4-(trifluoromethyl)thiazol-2-yl)-1H-pyrazole-5-carboxamide]	> 8.30
Cc1sc(-c2cnn(C)c2C(=O)NC2CCn3cc(-c4cccc(F)c4)nc3C2)nc1C(F)F (stereo not shown) [Example 2.7, 4-(4-(difluoromethyl)-5-methylthiazol-2-yl)-N-(2-(3-fluorophenyl)-5,6,7,8-tetrahydroimidazo[1,2-a]pyridin-7-yl)-1-methyl-1H-pyrazole-5-carboxamide]	> 8.30
Cn1ncc(-c2nc(C(F)F)c(Cl)s2)c1C(=O)NC1CCn2nc(-c3ccc(F)cc3)nc2C1 (stereo not shown) [Example 5.3, 4-(5-chloro-4-(difluoromethyl)thiazol-2-yl)-N-(2-(4-fluorophenyl)-5,6,7,8-tetrahydro-[1,2,4]triazolo[1,5-a]pyridin-7-yl)-1-methyl-1H-pyrazole-5-carboxamide]	> 8.30
COc1cc(-c2cnn(C)c2C(=O)Nc2cc3nc(-c4ccccc4)nn3cc2F)nc(OC)n1 [Example 3.40, 4-(2,6-dimethoxypyrimidin-4-yl)-N-(6-fluoro-2-phenyl-[1,2,4]triazolo[1,5-a]pyridin-7-yl)-1-methyl-1H-pyrazole-5-carboxamide]	> 8.30
Cc1cccc(-c2cnn(C)c2C(=O)Nc2cc3nc(-c4ccccc4)nn3cc2F)n1 [Example 3.3, N-(6-fluoro-2-phenyl-[1,2,4]triazolo[1,5-a]pyridin-7-yl)-1-methyl-4-(6-methylpyridin-2-yl)-1H-pyrazole-5-carboxamide]	> 8.30
Cc1ccc(-c2cnn(C)c2C(=O)NC2CCn3nc(-c4ccccc4)nc3C2)nc1 (stereo not shown) [Example 5.26, 1-methyl-4-(5-methylpyridin-2-yl)-N-(2-phenyl-5,6,7,8-tetrahydro-[1,2,4]triazolo[1,5-a]pyridin-7-yl)-1H-pyrazole-5-carboxamide]	7.00 to 8.30
Cc1nnc(-c2cnn(C)c2C(=O)NC2CCn3cc(-c4cc(F)ccc4F)nc3C2)s1 (stereo not shown) [Example 2.18, N-(2-(2,5-difluorophenyl)-5,6,7,8-tetrahydroimidazo[1,2-a]pyridin-7-yl)-1-methyl-4-(5-methyl-1,3,4-thiadiazol-2-yl)-1H-pyrazole-5-carboxamide]	7.00 to 8.30
Cc1ccnc(-c2cnn(C)c2C(=O)Nc2cc3nc(-c4ccccc4)nn3cc2F)c1 [Example 3.5, N-(6-fluoro-2-phenyl-[1,2,4]triazolo[1,5-a]pyridin-7-yl)-1-methyl-4-(4-methylpyridin-2-yl)-1H-pyrazole-5-carboxamide]	> 8.30
Cc1nc(-c2cnn(C)c2C(=O)NC2CCn3nc(-c4ccccc4)nc3C2)c(C(C)O)s1 (stereo not shown) [Example 5.31, 4-(5-(1-hydroxyethyl)-2-methylthiazol-4-yl)-1-methyl-N-(2-phenyl-5,6,7,8-tetrahydro-[1,2,4]triazolo[1,5-a]pyridin-7-yl)-1H-pyrazole-5-carboxamide]	7.00 to 8.30
Cc1nc(-c2cnn(C)c2C(=O)NC2CCn3nc(-c4ccc(F)cc4)nc3C2)c(C)s1 (stereo not shown) [Example 5.28, 4-(2,5-dimethylthiazol-4-yl)-N-(2-(4-fluorophenyl)-5,6,7,8-tetrahydro-[1,2,4]triazolo[1,5-a]pyridin-7-yl)-1-methyl-1H-pyrazole-5-carboxamide]	7.00 to 8.30
Cc1cccnc1-c1cnn(C)c1C(=O)Nc1cc2nc(-c3ccccc3)nn2cc1F [Example 3.1, N-(6-fluoro-2-phenyl-[1,2,4]triazolo[1,5-a]pyridin-7-yl)-1-methyl-4-(3-methylpyridin-2-yl)-1H-pyrazole-5-carboxamide]	> 8.30
